Molecular target: T1, SERCA2 (Homo sapiens, UniProt P16615)
T1 construct: gene ATP2A2; endogenous SERCA2 in SW480 whole-cell lysates
Experiment: competition by […] free RL71 of the RL71-biotin streptavidin pull-down (LC/MS, anti-SERCA2 western blot); Ca2+-ATPase inhibition in treated SW480 cells
Format: cell-based

T1 sequence (P16615 whole entry): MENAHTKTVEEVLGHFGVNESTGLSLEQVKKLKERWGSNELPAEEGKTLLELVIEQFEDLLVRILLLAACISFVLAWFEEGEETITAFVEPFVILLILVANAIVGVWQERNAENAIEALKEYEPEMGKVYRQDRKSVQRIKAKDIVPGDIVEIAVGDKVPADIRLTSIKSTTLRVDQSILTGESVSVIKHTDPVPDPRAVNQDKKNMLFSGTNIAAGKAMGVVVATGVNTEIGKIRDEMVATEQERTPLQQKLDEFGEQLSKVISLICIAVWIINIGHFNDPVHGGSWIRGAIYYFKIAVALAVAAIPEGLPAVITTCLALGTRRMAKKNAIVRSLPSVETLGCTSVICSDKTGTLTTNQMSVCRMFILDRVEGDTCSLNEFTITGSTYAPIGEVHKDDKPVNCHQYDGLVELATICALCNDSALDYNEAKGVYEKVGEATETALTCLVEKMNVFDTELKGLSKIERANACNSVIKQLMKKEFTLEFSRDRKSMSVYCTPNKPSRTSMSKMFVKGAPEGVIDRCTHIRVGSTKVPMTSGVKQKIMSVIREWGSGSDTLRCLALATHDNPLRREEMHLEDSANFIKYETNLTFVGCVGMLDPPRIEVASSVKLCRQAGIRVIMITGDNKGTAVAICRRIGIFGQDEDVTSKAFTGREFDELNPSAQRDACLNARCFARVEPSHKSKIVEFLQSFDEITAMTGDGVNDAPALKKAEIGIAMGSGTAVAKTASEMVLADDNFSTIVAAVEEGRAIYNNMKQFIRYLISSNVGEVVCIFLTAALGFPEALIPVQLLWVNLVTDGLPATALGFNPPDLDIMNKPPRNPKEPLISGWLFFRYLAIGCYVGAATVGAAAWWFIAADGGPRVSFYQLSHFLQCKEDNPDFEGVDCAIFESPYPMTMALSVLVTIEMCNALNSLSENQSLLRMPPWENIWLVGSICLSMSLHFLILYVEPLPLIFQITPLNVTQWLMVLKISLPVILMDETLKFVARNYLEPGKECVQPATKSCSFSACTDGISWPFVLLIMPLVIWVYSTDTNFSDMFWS

SMILES: COc1cc(C=C2CN(C)CC(=Cc3cc(OC)c(OC)c(OC)c3)C2=O)cc(OC)c1OC [compound 1, 3,5-bis(3,4,5-trimethoxybenzylidene)-1-methylpiperidine-4-one]
- competition by 200 μM free RL71 of the RL71-biotin streptavidin pull-down (LC/MS): The interaction between RL71-biotin and SERCA2 could be competed by RL71.

From PMC4741952, “Small molecule RL71 targets SERCA2 at a novel site in the treatment of human colorectal cancer” (Oncotarget, 2015)
